Test results from patent publication US8987193B2, “Nisin derivatives and the use thereof” (University College Cork—National University of Ireland, Cork, priority 2008, dated 2015).
Entries after “also recorded” stand apart in the source; their conditions may differ. Ends that are not written are not given here.

How the values were obtained:
[1] = system: indicator strains; test: Deferred antagonism assays, various indicator strains (summary); format: cell-based; settings: for bioactivity of the producing strain, in words: in general / against the strains tested; for Strain(s) against which the derivative (producing strain) displays enhanced bioactivity: relative to nisin A-producing control, value = strains listed
Outline: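 Producer strains were replicated on GM17 or GM17 x-gal agar, grown overnight, then overlaid with GM17, BHI, TS or MH soft agar (0.75% w/v) seeded with the indicator strain. Zone size was taken as the clearing diameter minus the diameter of bacterial growth (5 mm).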

[2] = system: Staph. aureus ST528 (MRSA); test: Deferred antagonism assay; format: cell-based; settings: producing strain, diameter of zone minus diameter of bacterial growth (5 mm), average of duplicates
Method: (§1) Deferred antagonism assays were performed by replicating strains on GM17 or GM17 x-gal agar plates and allowing them to grow overnight before overlaying with either GM17/BHI/TS/MH agar (0.75% w/v agar) seeded with the appropriate indicator strain. Zone size was calculated as the diameter of the zone of clearing minus the diameter of bacterial growth (5 mm) For higher throughput screening of N20PXX, XM21VX, XXK22T and XXX banks deferred antagonism assays were performed by replicating strains using a 96 pin replicator (Boekel) or spotting 5 μl of a fresh overnight culture on GM17 agar plates and allowing them to grow overnight. […] Additional sets of indicators were employed to further assess/reassess the bioactivity of a number of strains. […] For well-diffusion assays molten agar was cooled to 48° C. and seeded with the appropriate indicator strain. The inoculated medium was rapidly transferred into sterile Petri plates in 50 ml volumes, allowed to solidify and dried. Wells (4.6 mm in diameter) were then made in the seeded plates. Purified nisin and mutant nisins were resuspended in 0.005% acetic acid, serially diluted, 50 μl volumes were dispensed into the aforementioned wells and the plates incubated at 37° C. overnight. Bioactivity was expressed as arbitrary units/ml (AU/ml) and calculated as the reciprocal of the highest dilution that gave a definite zone multiplied by the conversion factor (i.e. 20 when 50 μl was used) (Ryan et al., 1996).
(§2) As a consequence of the enhanced activities of K22T and K22S, a more in-depth investigation of this region was carried out. Saturation mutagenesis was undertaken to create a bank of nisin A hinge derivatives containing the vast majority of possible amino acid substitutions for each position. Although pPTPL was used successfully for random mutagenesis, its relatively large size of approx 10.5 kb was considered unsuitable for the complete plasmid PCR amplification approach utilized for saturation mutagenesis. A smaller (approx 6 kb) E. coli-L. lactis shuttle vector pCI372 was considered to be potentially more useful. Its suitability with respect to the in trans expression of nisA was confirmed by the ability of pDFO5 to restore the nisin positive phenotype. Saturation mutagenesis was performed on each codon using pDF05 and oligonucleotides (Table 5) that replace the specific codon with a NNK triplet, potentially encoding all 20 standard amino acids. Following complete plasmid amplification and introduction into the intermediate Top10 host, sequence analysis of a pooled bank of pDF05 derivatives confirmed randomization. Introduction of these variants into L. lactis NZ9800 allowed the expression of mutant nisin A peptides for further analysis. […] 46 residue conversions were isolated. All strains, regardless of bioactivity, were assessed with a view to comprehensively assessing the consequences of each individual hinge alteration.
(§3) Values are an average of duplicate experiments and represent zone size (diameter of zone minus diameter of bacterial growth (i.e. 5 mm) relative to that of the NZ9800 pCI372nisA control. X=Mutants not identified.

[3] = system: Strep. agalactiae ATCC13813; test: Deferred antagonism assay; format: cell-based; settings: producing strain, diameter of zone minus 5 mm, average of duplicates
Method: as §1, §2, §3

[4] = system: Staph. aureus DPC5245; test: Deferred antagonism assay; format: cell-based; settings: producing strain; diameter of zone minus 5 mm; average of duplicates; St. aureus DPC5245
Method: as §1, §2, §3

[5] = system: S. aureus CBC4; test: Deferred antagonism assay; format: cell-based; parameters: key: + = Enhanced bioactivity relative to control; − = Bioactivity equal to or less than control; NA = no activity evident; settings: producing strain
Outline: (§4)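 L. lactis NZ9800 strains expressing nisin A hinge variants were replicated or spotted on GM17 agar, grown overnight, then overlaid with 0.75% w/v agar seeded with indicator. Zone size is the clearing diameter minus 5 mm colony growth.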

[6] = system: L. lactis CBC8; test: Deferred antagonism assay; format: cell-based; parameters: key: + = Enhanced bioactivity relative to control; − = Bioactivity equal to or less than control; NA = no activity evident; settings: producing strain
Outline: as §4

[7] = system: L. lactis CBC7; test: Deferred antagonism assay; format: cell-based; parameters: key: + = Enhanced bioactivity relative to control; − = Bioactivity equal to or less than control; NA = no activity evident; settings: producing strain
Outline: as §4

[8] = system: L. monocytogenes CBC2; test: Deferred antagonism assay; format: cell-based, Listeria monocytogenes; parameters: key: + = Enhanced bioactivity relative to control; − = Bioactivity equal to or less than control; NA = no activity evident; settings: producing strain; L. mono CBC2
Outline: as §4

[9] = system: L. monocytogenes CBC3; test: Deferred antagonism assay; format: cell-based, Listeria monocytogenes; parameters: key: + = Enhanced bioactivity relative to control; − = Bioactivity equal to or less than control; NA = no activity evident; settings: producing strain; L. mono CBC3
Outline: as §4

[10] = system: L. monocytogenes CBC1; test: Deferred antagonism assay; format: cell-based, Listeria monocytogenes; parameters: key: + = Enhanced bioactivity relative to control; − = Bioactivity equal to or less than control; NA = no activity evident; settings: producing strain; L. mono CBC1
Outline: as §4

[11] = system: C. sporogenes CBC5; test: Deferred antagonism assay; format: cell-based, Clostridium sporogenes; parameters: key: + = Enhanced bioactivity relative to control; − = Bioactivity equal to or less than control; NA = no activity evident; settings: producing strain
[12] = system: L. plantarum CBC6; test: Deferred antagonism assay; format: cell-based, Lactobacillus plantarum; parameters: key: + = Enhanced bioactivity relative to control; − = Bioactivity equal to or less than control; NA = no activity evident; settings: producing strain
Outline: as §4

| Substance | bioactivity of the producing strain, in words [1] | zone size relative to that of the NZ9800 pCI372nisA control [2] [%] | zone size relative to that of the NZ9800 pCI372nisA control [3] [%] | zone size relative to that of the NZ9800 pCI372nisA control [4] [%] | Bioactivity relative to control [5] | Bioactivity relative to control [6] | Bioactivity relative to control [7] | Bioactivity relative to control [8] | Bioactivity relative to control [9] | Bioactivity relative to control [10] | Bioactivity relative to control [11] | Bioactivity relative to control [12] | Strain(s) against which the derivative (producing strain) displays enhanced bioactivity [1] |
| --- | --- | --- | --- | --- | --- | --- | --- | --- | --- | --- | --- | --- | --- |
| M21Q: nisin A derivative, hinge substitution M21Q (ITSISLCTPGCKTGALMGCNQKTATCHCSIHVSK; cysteine pairing not given here; also: lantibiotic nisin-A; UniProt P13068 24-57, looked up, variant M21Q) | slightly diminished bioactivity | 92 | 98 | 94 |  |  |  |  |  |  |  |  |  |
| K22R: nisin A derivative, hinge substitution K22R (ITSISLCTPGCKTGALMGCNMRTATCHCSIHVSK; cysteine pairing not given here; also: lantibiotic nisin-A; UniProt P13068 24-57, looked up, variant K22R) | greatly reduced bioactivities | 42.5 | 56 | 45 |  |  |  |  |  |  |  |  |  |
| M21T: nisin A derivative, hinge substitution M21T (ITSISLCTPGCKTGALMGCNTKTATCHCSIHVSK; cysteine pairing not given here; also: lantibiotic nisin-A; UniProt P13068 24-57, looked up, variant M21T) |  | 110 | 110 | 112 |  |  |  |  |  |  |  |  |  |
| N20I: nisin A derivative, hinge substitution N20I (ITSISLCTPGCKTGALMGCIMKTATCHCSIHVSK; cysteine pairing not given here; also: lantibiotic nisin-A; UniProt P13068 24-57, looked up, variant N20I) | retention of relatively high levels of bioactivity |  | 61 | 49 | − | − | − | − | − | − | − | − |  |
| N20D: nisin A derivative, hinge substitution N20D (ITSISLCTPGCKTGALMGCDMKTATCHCSIHVSK; cysteine pairing not given here; also: lantibiotic nisin-A; UniProt P13068 24-57, looked up, variant N20D) | devoid of bioactivity | 0 | 0 | 0 |  |  |  |  |  |  |  |  |  |
| N20W: nisin A derivative, hinge substitution N20W (ITSISLCTPGCKTGALMGCWMKTATCHCSIHVSK; cysteine pairing not given here; also: lantibiotic nisin-A; UniProt P13068 24-57, looked up, variant N20W) |  | 5.4 | 0 |  | − | − | − | − | − | − | − | − |  |
| NisinA M21Y (ITSISLCTPGCKTGALMGCNYKTATCHCSIHVSK; not fully specified; also: lantibiotic: lanthionine rings and dehydro residues not placed; UniProt P13068 24-57, looked up, variant M21Y) [nisin A derivative, hinge substitution M21Y] |  |  | 65 |  | + | − | + | + | + | − | + | − | L. monocytogenes CBC2 and CBC3 as well as Staph. aureus CBC4, C. sporogenes CBC5 and L. lactis CBC7; also recorded: L. monocytogenes CBC2, CBC3, S. aureus CBC4, C. sporogenes CBC5 and L. lactis 7 |
| N20Y: nisin A derivative, hinge substitution N20Y (ITSISLCTPGCKTGALMGCYMKTATCHCSIHVSK; cysteine pairing not given here; also: lantibiotic nisin-A; UniProt P13068 24-57, looked up, variant N20Y) |  | 33.5 | 30.5 | 55 |  |  |  |  |  |  |  |  |  |
| NisinA N20T (ITSISLCTPGCKTGALMGCTMKTATCHCSIHVSK; not fully specified; also: lantibiotic nisin: dehydrated residues and thioether rings not placed; UniProt P13068 24-57, looked up, variant N20T) [nisin A derivative, hinge substitution N20T] |  | 79 |  | 90 | − | − | − | − | − | − | + | − | C. sporogenes CBC5 |
| M21R: nisin A derivative, hinge substitution M21R (ITSISLCTPGCKTGALMGCNRKTATCHCSIHVSK; cysteine pairing not given here; also: lantibiotic nisin-A; UniProt P13068 24-57, looked up, variant M21R) | greatly reduced bioactivities | 56.5 | 66 | 61 |  |  |  |  |  |  |  |  |  |
